Assay results as given in paper PMC7827406, “Structure–Activity Relationship (SAR) Study of Spautin-1 to Entail the Discovery of Novel NEK4 Inhibitors” (International Journal of Molecular Sciences, 2021).
Where two headings read alike, the source gives them in different places.

What was measured:
Experiment in all cases: biochemical
Parameters in all cases: Eurofins KinaseProfiler full panel at Km ATP, residual kinase activity (%) relative to DMSO
[1] = molecular target: CDK14/cyclinY(h) (Homo sapiens, UniProt O94921)
Procedure, shortened: (§1)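 Radiometric kinase activity assays were run with ATP at Km and compounds at 10 µM, and remaining activity (%) was reported. A separate competitive binding screen measured DNA-tagged kinase displaced from immobilized active-site ligands by qPCR, giving percent kinase still bound at 10 µM compound in DMSO.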

[2] = molecular target: T1, CK1γ1(h) (Homo sapiens, UniProt Q9HCP0)
T1 construct: gene CSNK1G1
Procedure, shortened: as §1

[3] = molecular target: CLK2(h) (Homo sapiens, UniProt P49760)
Procedure, shortened: as §1

[4] = molecular target: T2, CaMKIγ(h) (Homo sapiens, UniProt Q96NX5)
T2 construct: gene CAMK1G
Procedure, shortened: as §1

[5] = molecular target: CaMKK1(h) (Homo sapiens, UniProt Q8N5S9)
Procedure, shortened: as §1

[6] = molecular target: T3, MAK(h) (Homo sapiens, UniProt P20794)
T3 sequence (P20794 1-623): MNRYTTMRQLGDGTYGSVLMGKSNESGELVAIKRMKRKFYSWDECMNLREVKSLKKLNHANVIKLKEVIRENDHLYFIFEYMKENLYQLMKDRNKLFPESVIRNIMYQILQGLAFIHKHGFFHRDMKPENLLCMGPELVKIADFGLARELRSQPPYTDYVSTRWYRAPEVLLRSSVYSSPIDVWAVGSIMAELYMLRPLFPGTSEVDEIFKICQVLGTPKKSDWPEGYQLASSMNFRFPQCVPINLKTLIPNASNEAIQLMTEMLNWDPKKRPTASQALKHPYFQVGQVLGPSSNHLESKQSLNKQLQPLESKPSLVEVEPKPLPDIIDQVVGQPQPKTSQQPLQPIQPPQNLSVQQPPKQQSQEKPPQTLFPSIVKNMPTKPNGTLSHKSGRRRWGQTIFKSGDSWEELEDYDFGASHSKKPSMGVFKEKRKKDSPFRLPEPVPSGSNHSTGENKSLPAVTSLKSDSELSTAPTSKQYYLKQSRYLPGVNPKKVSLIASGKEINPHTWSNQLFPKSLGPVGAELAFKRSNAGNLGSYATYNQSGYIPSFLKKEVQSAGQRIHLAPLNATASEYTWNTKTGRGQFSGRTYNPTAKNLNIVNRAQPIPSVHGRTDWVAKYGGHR
Procedure, shortened: as §1

[7] = molecular target: T4, MRCKα(h) (Homo sapiens, UniProt Q5VT25)
T4 construct: gene CDC42BPA
Procedure, shortened: as §1

[8] = molecular target: T5, PKR(h) (Homo sapiens, UniProt P19525)
T5 construct: gene EIF2AK2
Procedure, shortened: as §1

[9] = molecular target: T6, TSSK1(h) (Homo sapiens, UniProt Q9BXA7)
T6 construct: gene TSSK1B
T6 sequence (Q9BXA7 1-367): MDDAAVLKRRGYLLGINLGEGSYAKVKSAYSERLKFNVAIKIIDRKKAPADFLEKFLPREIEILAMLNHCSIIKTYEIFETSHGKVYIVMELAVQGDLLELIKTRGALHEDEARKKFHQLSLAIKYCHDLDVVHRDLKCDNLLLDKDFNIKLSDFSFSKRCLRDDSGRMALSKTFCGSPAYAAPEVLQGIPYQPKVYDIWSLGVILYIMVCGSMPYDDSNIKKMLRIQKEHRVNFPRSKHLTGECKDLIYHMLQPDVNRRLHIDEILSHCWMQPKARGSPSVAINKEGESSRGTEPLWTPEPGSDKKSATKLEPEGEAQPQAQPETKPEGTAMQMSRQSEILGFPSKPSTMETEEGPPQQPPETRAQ
Procedure, shortened: as §1

[10] = read-out: Residual activity (%) Spautin-1 5aa
[11] = read-out: Residual activity (%) 5as
[12] = read-out: Residual activity (%) 5at
[13] = read-out: Residual activity (%) 5ay

Chain of CLK2(h) (P49760 whole entry): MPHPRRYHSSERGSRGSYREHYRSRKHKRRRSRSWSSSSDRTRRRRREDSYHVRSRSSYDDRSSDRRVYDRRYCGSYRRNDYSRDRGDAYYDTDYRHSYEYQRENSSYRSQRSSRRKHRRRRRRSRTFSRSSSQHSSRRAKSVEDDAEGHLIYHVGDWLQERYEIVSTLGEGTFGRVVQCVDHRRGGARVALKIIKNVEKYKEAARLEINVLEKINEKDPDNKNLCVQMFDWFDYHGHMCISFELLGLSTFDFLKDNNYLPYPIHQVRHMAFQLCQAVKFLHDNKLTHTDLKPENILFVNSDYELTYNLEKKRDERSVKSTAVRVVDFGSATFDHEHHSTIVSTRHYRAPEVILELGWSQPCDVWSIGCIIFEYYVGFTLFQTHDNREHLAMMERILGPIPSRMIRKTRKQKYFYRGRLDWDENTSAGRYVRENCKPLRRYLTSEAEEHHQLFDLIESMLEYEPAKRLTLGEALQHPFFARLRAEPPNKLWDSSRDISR
T1 sequence (Q9HCP0 whole entry): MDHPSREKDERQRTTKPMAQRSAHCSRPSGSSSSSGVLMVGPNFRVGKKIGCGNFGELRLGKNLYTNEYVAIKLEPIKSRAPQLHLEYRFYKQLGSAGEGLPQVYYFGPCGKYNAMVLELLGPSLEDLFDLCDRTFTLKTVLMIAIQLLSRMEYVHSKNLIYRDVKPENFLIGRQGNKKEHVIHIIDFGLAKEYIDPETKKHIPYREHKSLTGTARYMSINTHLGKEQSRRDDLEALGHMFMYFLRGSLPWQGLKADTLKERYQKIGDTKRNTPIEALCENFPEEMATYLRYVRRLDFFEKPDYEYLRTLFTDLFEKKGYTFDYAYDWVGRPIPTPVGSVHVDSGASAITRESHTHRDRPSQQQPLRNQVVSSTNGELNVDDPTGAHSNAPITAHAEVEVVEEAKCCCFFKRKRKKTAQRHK
T2 sequence (Q96NX5 whole entry): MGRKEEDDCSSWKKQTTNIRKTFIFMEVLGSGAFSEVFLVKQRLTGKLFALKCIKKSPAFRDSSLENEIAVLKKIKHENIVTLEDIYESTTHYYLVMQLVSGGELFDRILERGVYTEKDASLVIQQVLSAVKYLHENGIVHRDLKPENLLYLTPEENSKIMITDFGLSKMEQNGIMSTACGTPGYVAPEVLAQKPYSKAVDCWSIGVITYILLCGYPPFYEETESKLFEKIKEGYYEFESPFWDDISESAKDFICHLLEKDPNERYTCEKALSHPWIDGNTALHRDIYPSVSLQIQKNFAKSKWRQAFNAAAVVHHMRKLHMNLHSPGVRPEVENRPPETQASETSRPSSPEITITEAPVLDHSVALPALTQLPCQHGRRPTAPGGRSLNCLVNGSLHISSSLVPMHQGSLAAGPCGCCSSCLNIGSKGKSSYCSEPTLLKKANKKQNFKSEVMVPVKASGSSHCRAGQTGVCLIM
Chain of CaMKK1(h) (Q8N5S9 whole entry): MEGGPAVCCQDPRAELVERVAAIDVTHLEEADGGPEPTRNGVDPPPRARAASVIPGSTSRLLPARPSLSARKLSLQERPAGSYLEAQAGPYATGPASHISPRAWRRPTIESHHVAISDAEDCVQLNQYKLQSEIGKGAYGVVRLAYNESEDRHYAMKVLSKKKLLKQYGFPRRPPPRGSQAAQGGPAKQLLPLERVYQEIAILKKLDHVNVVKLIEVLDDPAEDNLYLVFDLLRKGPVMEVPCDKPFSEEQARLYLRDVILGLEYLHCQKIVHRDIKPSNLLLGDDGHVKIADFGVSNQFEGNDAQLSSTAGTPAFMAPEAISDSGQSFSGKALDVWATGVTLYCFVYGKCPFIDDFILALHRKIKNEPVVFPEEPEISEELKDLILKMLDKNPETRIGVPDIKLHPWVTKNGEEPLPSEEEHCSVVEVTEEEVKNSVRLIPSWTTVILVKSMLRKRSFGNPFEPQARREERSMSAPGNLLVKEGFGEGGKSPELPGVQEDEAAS
T4 sequence (Q5VT25 whole entry): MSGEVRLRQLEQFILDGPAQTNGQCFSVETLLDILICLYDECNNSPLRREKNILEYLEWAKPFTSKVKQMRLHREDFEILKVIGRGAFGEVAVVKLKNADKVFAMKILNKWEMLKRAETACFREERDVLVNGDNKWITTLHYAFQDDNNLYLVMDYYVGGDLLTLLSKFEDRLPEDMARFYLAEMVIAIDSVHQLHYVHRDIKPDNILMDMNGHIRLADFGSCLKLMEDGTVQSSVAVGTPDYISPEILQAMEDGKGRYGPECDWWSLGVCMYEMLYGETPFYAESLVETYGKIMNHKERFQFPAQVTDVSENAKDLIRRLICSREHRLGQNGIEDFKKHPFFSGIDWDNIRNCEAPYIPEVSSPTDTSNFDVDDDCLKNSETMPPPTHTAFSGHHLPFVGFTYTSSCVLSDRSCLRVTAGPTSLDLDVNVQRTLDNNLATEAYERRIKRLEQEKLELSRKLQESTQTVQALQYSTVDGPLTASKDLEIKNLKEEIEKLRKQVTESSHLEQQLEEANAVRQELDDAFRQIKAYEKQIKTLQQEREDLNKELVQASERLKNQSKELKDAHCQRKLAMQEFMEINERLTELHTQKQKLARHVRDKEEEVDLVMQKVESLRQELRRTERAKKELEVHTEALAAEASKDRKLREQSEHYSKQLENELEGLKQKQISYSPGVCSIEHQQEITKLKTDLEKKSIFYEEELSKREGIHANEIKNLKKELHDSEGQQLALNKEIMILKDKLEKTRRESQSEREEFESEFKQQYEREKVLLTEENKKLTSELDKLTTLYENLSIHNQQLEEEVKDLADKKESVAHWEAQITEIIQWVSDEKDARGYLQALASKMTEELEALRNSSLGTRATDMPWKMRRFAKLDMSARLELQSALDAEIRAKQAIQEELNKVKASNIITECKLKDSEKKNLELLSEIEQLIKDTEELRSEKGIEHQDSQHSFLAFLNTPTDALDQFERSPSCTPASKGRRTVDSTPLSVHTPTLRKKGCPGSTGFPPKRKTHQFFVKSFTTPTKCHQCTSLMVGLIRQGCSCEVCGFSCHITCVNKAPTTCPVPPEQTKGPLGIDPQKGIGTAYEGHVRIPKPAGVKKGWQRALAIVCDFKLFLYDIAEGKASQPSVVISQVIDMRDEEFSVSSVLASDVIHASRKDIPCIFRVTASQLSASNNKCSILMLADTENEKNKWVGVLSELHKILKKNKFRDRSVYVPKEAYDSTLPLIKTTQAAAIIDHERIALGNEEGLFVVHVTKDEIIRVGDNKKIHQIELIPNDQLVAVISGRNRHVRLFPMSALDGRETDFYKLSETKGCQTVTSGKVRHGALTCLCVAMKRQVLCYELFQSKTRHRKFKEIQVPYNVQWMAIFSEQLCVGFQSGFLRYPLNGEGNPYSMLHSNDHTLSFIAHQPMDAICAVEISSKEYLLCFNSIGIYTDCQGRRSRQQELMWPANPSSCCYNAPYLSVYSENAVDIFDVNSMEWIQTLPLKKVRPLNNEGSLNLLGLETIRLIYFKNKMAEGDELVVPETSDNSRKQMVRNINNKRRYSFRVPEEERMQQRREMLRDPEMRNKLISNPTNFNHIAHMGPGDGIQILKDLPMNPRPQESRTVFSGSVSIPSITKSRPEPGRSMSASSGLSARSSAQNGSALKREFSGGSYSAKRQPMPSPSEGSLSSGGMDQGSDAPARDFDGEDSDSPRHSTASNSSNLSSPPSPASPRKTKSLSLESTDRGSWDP
T5 sequence (P19525 whole entry): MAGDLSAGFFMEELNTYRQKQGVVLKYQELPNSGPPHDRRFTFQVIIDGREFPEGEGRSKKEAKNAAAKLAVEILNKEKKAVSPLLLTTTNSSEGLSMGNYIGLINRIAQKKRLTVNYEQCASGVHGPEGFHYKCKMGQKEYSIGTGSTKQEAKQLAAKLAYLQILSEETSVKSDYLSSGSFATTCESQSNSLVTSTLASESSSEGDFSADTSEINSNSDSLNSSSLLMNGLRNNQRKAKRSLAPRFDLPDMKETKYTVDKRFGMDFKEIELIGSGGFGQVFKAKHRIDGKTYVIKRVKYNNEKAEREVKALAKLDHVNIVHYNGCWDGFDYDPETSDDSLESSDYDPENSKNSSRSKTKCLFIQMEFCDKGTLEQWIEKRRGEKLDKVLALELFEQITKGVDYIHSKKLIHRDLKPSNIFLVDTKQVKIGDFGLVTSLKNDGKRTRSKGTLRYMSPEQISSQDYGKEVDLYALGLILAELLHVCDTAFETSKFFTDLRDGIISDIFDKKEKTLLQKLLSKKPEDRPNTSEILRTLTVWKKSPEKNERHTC
Chain of CDK14/cyclinY(h) (O94921 whole entry): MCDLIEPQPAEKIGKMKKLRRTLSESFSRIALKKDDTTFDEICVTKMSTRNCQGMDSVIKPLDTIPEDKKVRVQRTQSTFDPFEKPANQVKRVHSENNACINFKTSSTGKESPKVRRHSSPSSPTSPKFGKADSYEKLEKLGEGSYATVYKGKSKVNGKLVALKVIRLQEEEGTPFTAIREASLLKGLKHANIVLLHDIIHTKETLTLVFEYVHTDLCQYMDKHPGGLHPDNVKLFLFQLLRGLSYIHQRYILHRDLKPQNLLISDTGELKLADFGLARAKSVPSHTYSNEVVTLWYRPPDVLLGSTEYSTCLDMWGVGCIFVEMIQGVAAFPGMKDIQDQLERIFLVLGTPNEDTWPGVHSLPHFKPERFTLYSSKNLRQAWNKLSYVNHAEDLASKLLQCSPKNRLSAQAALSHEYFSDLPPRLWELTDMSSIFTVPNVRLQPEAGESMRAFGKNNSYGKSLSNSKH
Chain of CDK14/cyclinY(h) (Q8ND76 whole entry partner): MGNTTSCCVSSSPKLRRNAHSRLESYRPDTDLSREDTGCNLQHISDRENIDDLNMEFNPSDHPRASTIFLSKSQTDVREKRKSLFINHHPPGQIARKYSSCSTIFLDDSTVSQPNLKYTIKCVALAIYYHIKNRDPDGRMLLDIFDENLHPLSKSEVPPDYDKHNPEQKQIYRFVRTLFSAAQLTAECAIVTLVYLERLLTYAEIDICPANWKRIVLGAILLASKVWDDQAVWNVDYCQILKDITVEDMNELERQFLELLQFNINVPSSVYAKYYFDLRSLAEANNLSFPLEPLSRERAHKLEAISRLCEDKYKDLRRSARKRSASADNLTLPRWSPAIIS

Structure (SMILES): Fc1ccc(CNc2ncnc3ccc(F)cc23)cc1 [5aa, 6-Fluoro-N-(4-fluorobenzyl)-4-Quinazolinamine]
- remaining activity at 10 µM [1, 10]: 107%
- remaining activity at 10 µM [2, 10]: 99%
- remaining activity at 10 µM [3, 10]: 47%
- remaining activity at 10 µM [4, 10]: 95%
- remaining activity at 10 µM [5, 10]: 96%
- remaining activity at 10 µM [6, 10]: 89%
- remaining activity at 10 µM [7, 10]: 91%
- remaining activity at 10 µM [8, 10]: 100%
- remaining activity at 10 µM [9, 10]: 82%

Structure (SMILES): Fc1ccc(CCNc2ncnc3ccc(F)cc23)cc1 [5as, 6-Fluoro-N-[2-(4-Fluorophenyl)Ethyl]-4-Quinazolinamine]
- remaining activity at 10 µM [1, 11]: 103%
- remaining activity at 10 µM [2, 11]: 80%
- remaining activity at 10 µM [3, 11]: 53%
- remaining activity at 10 µM [4, 11]: 94%
- remaining activity at 10 µM [5, 11]: 99%
- remaining activity at 10 µM [6, 11]: 77%
- remaining activity at 10 µM [7, 11]: 93%
- remaining activity at 10 µM [8, 11]: 98%
- remaining activity at 10 µM [9, 11]: 82%

Structure (SMILES): Fc1ccc2ncnc(NCCc3ccc(Cl)cc3)c2c1 [5at, N-[2-(4-Chlorophenyl)Ethyl]-6-Fluoro-4-Quinazolinamine]
- remaining activity at 10 µM [1, 12]: 109%
- remaining activity at 10 µM [2, 12]: 80%
- remaining activity at 10 µM [3, 12]: 60%
- remaining activity at 10 µM [4, 12]: 87%
- remaining activity at 10 µM [5, 12]: 91%
- remaining activity at 10 µM [6, 12]: 76%
- remaining activity at 10 µM [7, 12]: 98%
- remaining activity at 10 µM [8, 12]: 94%
- remaining activity at 10 µM [9, 12]: 77%

Structure (SMILES): COc1ccc2ncnc(Nc3cccc(F)c3)c2c1 [5ay, N-(3-Fluorophenyl)-6-Methoxy-4-Quinazolinamine]
- remaining activity at 10 µM [1, 13]: 93%
- remaining activity at 10 µM [2, 13]: 94%
- remaining activity at 10 µM [3, 13]: 43%
- remaining activity at 10 µM [4, 13]: 94%
- remaining activity at 10 µM [5, 13]: 90%
- remaining activity at 10 µM [6, 13]: 74%
- remaining activity at 10 µM [7, 13]: 87%
- remaining activity at 10 µM [8, 13]: 71%
- remaining activity at 10 µM [9, 13]: 81%
